Measurements taken from patent US6497862B2, “Composition for inhibiting body odor and uses thereof” (Kabushiki Kaisha Hayashibara, priority 2000, dated 2002).

Columns and labels:
[1] = Formation of 2-nonenal from 9-hexadecanoic acid by heating, GC of HSG (Experiment 3); details: 9-hexadecanoic acid + 100 mg test saccharide, heated at 105° C. for one hour; control 25.7
Procedure: (§1) One hundred milligrams of oleic acid as a fatty acid, 500 mg of cellulose powder, and 1.25 ml of 0.12 M phosphate buffer (pH 6.0) were placed in a 20-ml glass vial. To the glass vial were added 100 mg of either of crystalline trehalose hydrate, crystalline maltitol anhydride, crystalline sorbitol anhydride, crystalline sucrose anhydride, crystalline maltose anhydride, and crystalline neotrehalose hydride as test saccharides (throughout Experiments 1 to 6, these saccharides are designated as “trehalose”, “maltitol”, sorbitol”, “sucrose”, “maltose”, and “neotrehalose”, respectively), followed by sealing the glass vial with a butyl rubber. As a control system, there provided a glass vial, with no a test saccharide, which differed from the test glass vial on this point. These glass vials were heated at 105° C. for one hour, cooled to ambient temperature, and kept in an aluminum heat-block (abbreviated as “heat block, hereinafter”), which had been preheated to 80° C. After 5-minutes standing, two milliliters of a head space gas (abbreviated as “HSG”, hereinafter) were collected from each glass vial with a syringe.
(§2) The collected HSG was analyzed for content of volatile aldehydes on gas chromatography (abbreviated as “GC” hereinafter) using “GAS CHROMATOGRAPH GC-14A”, as a GC apparatus; “CAPILLARY COLUMN SUPELCO-WAX”, having 0.25 mm in inner diameter, 60 m in length, and 0.25 μm in thickness, commercialized by Supelco Inc., Tokyo, Japan, as a column for analysis; helium gas at a flow rate of one ml/min as a carrier gas, under temperature conditions of 250° C. for injecting a sample and of a column thermostatic bath temperature being kept at 80° C. for five minutes and then increased up to 240° C. at a rate of 5° C./min. As standard specimens, propanal, butanal, and hexanal as volatile aldehydes were used. Based on the peak area obtained from gas chromatography for the standard specimens and HSG samples, the content of respective volatile aldehydes in HSG was calculated.
(§3) The content of 2-nonenal in HSG was measured by GC similarly as in Experiment 1 except that 9-hexadecanoic acid or palmitoleic acid was used as a fatty acid and 2-nonenal, a volatile aldehyde, was used as a standard substance. The level of body-odor-like smell, particularly with respect to KAREI-SHU, in each sample was evaluated by panel test in accordance with the method in Experiment 1.

[2] = Formation of volatile aldehydes from oleic acid by heating, GC analysis of head space gas (Experiment 1); details: oleic acid 100 mg + 100 mg test saccharide, heated at 105° C. for one hour; for Content in HSG, Hexanal: control 0.08; for Content in HSG, Butanal: control 1.04; for Content in HSG, Propanal: control 9.41
Procedure: as §1, §2

[3] = Panel test of body-odor-like smell (KAREI-SHU), 9-hexadecanoic acid heated (Experiment 3); set-up: key: +++: the same or higher level of odor; ++: slightly lower level of odor; +: clearly lower level of odor than that of the control system; details: compared with control system
Source text: (§4) Upon the HSG samples, the level of a body-odor-like smell was examined on a panel test consisting of six professional panels; the panels directly smelled the samples from each glass vial and judged the level of the smells for each samples with test saccharides based on the following four ranks, i.e., the same or higher level of odor (+++), slightly lower level of odor (++), clearly lower level of odor (+), and odorless (−) as compared with the control system. Summing up the data from the panels, the samples tested were totally evaluated.
as §3

[4] = Formation of 2-nonenal from linoleic acid by heating, GC of HSG (Experiment 2); details: linoleic acid + 100 mg test saccharide, heated at 105° C. for one hour; control 5.75
Procedure: as §1, §2
as §3, with “except that linoleic acid was” for “except that 9-hexadecanoic acid or palmitoleic acid was”, “level of a body-odor-like smell,” for “level of body-odor-like smell,”

[5] = Panel test of body-odor-like smell, oleic acid heated (Experiment 1); set-up: key: +++: the same or higher level of odor; ++: slightly lower level of odor; +: clearly lower level of odor than that of the control system; details: oleic acid heated at 105° C. for one hour; six panels, compared with control system
Procedure: as §1, §4

[6] = Panel test of body-odor-like smell (KAREI-SHU), linoleic acid heated (Experiment 2); set-up: key: +++: the same or higher level of odor; ++: slightly lower level of odor; +: clearly lower level of odor than that of the control system; details: compared with control system
Source text: as §4
as §3, with “except that linoleic acid was” for “except that 9-hexadecanoic acid or palmitoleic acid was”, “level of a body-odor-like smell,” for “level of body-odor-like smell,”

Compound | Content of 2-nonenal in HSG [1] [µg/mL] | Content in HSG, Hexanal [2] [µg/mL] | Content in HSG, Butanal [2] [µg/mL] | Content in HSG, Propanal [2] [µg/mL] | Evaluation of panel test [3] | Content of 2-nonenal in HSG [4] [µg/mL] | Evaluation of panel test [5] | Evaluation of panel test [6]
OC[C@H]1O[C@@H](O[C@H]2O[C@H](CO)[C@@H](O)[C@H](O)[C@H]2O)[C@H](O)[C@@H](O)[C@@H]1O [Neotrehalose, neotrehalose] | 25.7 | 0.08 | 1.25 | 8.89 | +++ | 5.64 | +++ | +++
OC[C@@H](O)[C@@H](O)[C@H](O)[C@@H](O)CO [Sorbitol, sorbitol] | 23.6 | 0.06 | 1.06 | 8.31 | +++ | 5.12 | +++ | +++
OC[C@H]1O[C@H](O[C@H]2[C@H](O)[C@@H](O)C(O)O[C@@H]2CO)[C@H](O)[C@@H](O)[C@@H]1O (mixture of isomers) [Maltose, maltose] | 24.2 | 0.07 | 1.38 | 9.09 | +++ | 4.60 | +++ | +++
